Reference: US20240051997A1, “SAP AND PEPTIDOMIMETIC COMPOSITIONS FOR REDUCING SYMPTOMS OF INFLAMMATION” (Arch Biosurgery, Inc., priority 2018, published 2024)

Tested on: olfactory bulb inflammation, GFAP (reactive astrocytes)
Assay: Olfactory bulb injury model (transection), GFAP immunohistochemistry
Assay type: in vivo, Sprague-Dawley rat
Details: rat olfactory bulb, days 2-14
Description: The anti-inflammatory effects of EARA-16 (SEQ ID NO: 89) and RADA-16 (SEQ ID NO: 1) were examined using an olfactory bulb injury model. Levels of inflammation were assayed through immunohistochemical staining for glial fibrillary acidic protein (GFAP) as an indicator of reactive astrocytes.
In brief, the olfactory bulbs of adult Sprague-Dawley rats were unilaterally transected and the cuts were then treated with either saline as a control, or one of RADA-16 (SEQ ID NO: 1) or EARA-16 (SEQ ID NO: 89) solutions (each used at 1% and 3%). The SAP materials were injected into the cuts post transection at the time of surgery. After 2, 7 or 14 days, the animals were sacrificed.
A more detailed protocol is as follows: adult Sprague-Dawley rats were anesthetized with a mixture of ketamine (80 mg/kg, i. p.) and xylazine (8 mg/kg, i. p.). The head was shaved and a thorough disinfection of the head surface was carried out with iodine 5% solution. The bilateral olfactory bulbs were exposed by drilling two burr holes (2 mm diameter, 8 mm anterior to the bregma) on either side at a distance of 2 mm from the midline of the frontal bone in the region overlying the olfactory bulbs. A cataract knife with a blunted end and one sharpened edge was used for surgery. The cut was performed on the middle of olfactory bulb. The blunted edge of the knife was inserted along the middle line of the olfactory bulb to prevent damage of the sagittal sinus, until the tip of the knife lightly touched the bottom of the brain without penetration of the dura. The knife was then moved laterally to transect the bulb until it reached the lateral edge of the hole. The knife was then rotated and pulled out to have a complete cut of the bulb at lateral side. This procedure was modified from the method described in several previous studies attempting to isolate the olfactory bulb from other parts of the brain (Ahrens & Freeman 2001; Allison 1953; Chaput 1983; Freeman 1968; Koliatsos et al 2004; Munirathinam et al 1997).
After performing the cut, one of the solutions was used to treat the injury site: either 10 μl saline (control group) or the EARA-16 (SEQ ID NO: 89) or RADA-16 (SEQ ID NO: 1) SAP (at a concentration of 1% and 3%) was injected evenly into the wound site using a self-constructed hydraulic pressure injection system without micro syringe. This technique was modified from similar methods as described by Bullier and others (Bullier et al 1980; Fish & Rhoades 1981; Kratskin et al 1997; Meyers & Snow 1981; Price et al 1977; Shipley 1982). Care was taken to control the speed of the injection of the saline or the SAP. After the injection, the wound was closed and the animals were placed in a warm place for recovery before they were brought back to their home cages. […]

Sequence: RADARADARADARADA [RADA-16, self-assembling peptide]
- time course of reactive astrocyte activation / inflammation (GFAP) (1% solution): increased activation of reactive astrocytes on day 7 which subsequently reduced by day 14
- time course of reactive astrocyte activation / inflammation (GFAP) (3% solution): increased activation of reactive astrocytes on day 7 which subsequently reduced by day 14
